These results are taken from article PMC8234462, “Novel Cyclophilin Inhibitor Decreases Cell Proliferation and Tumor Growth in Models of Hepatocellular Carcinoma” (Cancers, 2021).

Each structure is given as a SMILES string. Where two headings read alike, the source gives them in different places.

The nature of data set [1]: Pharmacokinetics IV and PO. The data set is classed as in vivo. The note with it: male, CD1, mouse, blood, mice; for Tmax: read-out: time of peak concentration in blood (converted). The protocol: These experiments were performed by Shanghai ChemPartner Co., Ltd. (Shanghai, China) following the guidance described above.
Thirty microliters of blood or liver samples were mixed with 100-µL Pierce Acetonitrile (ACN, Thermo Fisher Scientific, Waltham, MA, USA) containing 20-ng/mL IS (702) used as the internal standard. An aliquot of 10-µL supernatant was injected for LC-MS/MS analysis using LCMSMS-003 (API4000).
NV651 was prepared as described above. Six- to eight-week-old male mice were treated IV with 0.5 mg/kg or PO with 5 mg/kg, with 3 mice per group. Blood and plasma samples were taken pre-dose; at 5 min of treatment and at 1, 2, 4, 8 or 24 h. Analysis was performed as indicated above.

Data set [2] is described as follows: Stability of NV651 solution in 25% buffered HPbCD. Format: physicochemical. Conditions: stored at 4 °C. The protocol: Twenty-five percent buffered Hydroxy Propyl beta Cyclodextrin (HPbCD) was prepared from Hydroxy Propyl beta Cyclodextrin (Roquette, Lestrem, France), EDTA solution and phosphate buffer at a pH of 7.4, filtered with a […] (VWR, Cat# 28145-483, Radnor, PA, USA) and stored at 4 °C. NV651 was prepared at a concentration of 10 mg/kg with 25% buffered HPbCD (vehicle). NV651 solution was sonicated for 30 min in a water bath sonicator (Bioruptor, Diagenode, Denville, NJ, USA) and shaken for up to an hour, followed by a secondary sterilization with a 0.2-µm filter. NV651 solution was stored at 4 °C up to 2 weeks, with stability confirmed up to 3 weeks.

The test system of data set [3] is HUH7. Description: Mitotic quantification by immunofluorescence. The data set is classed as cell-based, human. Conditions: 10 or 100 nM, 48 h. The protocol: HUH7 cells were seeded at a concentration of 4.5 × 10^4 cells/well in a 6-well plate containing coverslips, followed by the treatment of NV651 at 10 or 100 nM or the equivalent volume in DMSO. After 48 h, samples were fixed with 4% PFA (Histolab, Cat# 02176, Gothenburg, Sweden) and permeabilized with 0.1% Triton x-100 (Sigma-Aldrich, Cat# X100-500ML, St. Louis, MO, USA) diluted in PBS. Samples were stained with 1-µg/mL of rat anti-tubulin (Abcam, Cat# ab6161, Cambridge, UK) for one hour at room temperature. Lastly, DAPI and secondary antibody goat anti-rat IgG AF546 conjugate (Invitrogen, Cat# A11081, Waltham, MA, USA) were added. Coverslips were mounted on glass slides adding fluorescent mounting media (Dako, Agilent, Santa Clara, CA, USA). Thirteen pictures at 10× were taken with a Zeiss Confocal microscope and quantified for the number of mitotic cells in relation to the total number of cells with ImageJ.

In another data set the test system is iPS neurons. Description: Cytotoxicity, CellTiter Glo. The data set is classed as cell-based. The note with it: Homo sapiens, Neuron, 72 h, 3 days of treatment, read-out: IC50 (50% reduction in cell viability). The protocol: (§1) The evaluation of the off-target effects of NV651 was performed by ImQuest BioSciences Inc. (Frederick, MD, USA) by analyzing the cytotoxicity in a panel of primary cells. NV651 was evaluated at a concentration of 30 µM and five serial half-logarithmic dilutions in triplicate. The positive control compounds for each cell type were purchased from Sigma-Aldrich (St. Louis, MO, USA) and were as follows:
(§2) CellTiter Glo was performed to evaluate cell viability. CellTiter Glo Luminescent Cell Viability Assay (Promega, Madison, WI, USA) was performed according to the manufacturer’s instructions.
On the technique in general: Cellular ATP, detected with luciferase, serves as a proxy for viable cell number.

The next data set relates to Hepatocytes. Description: Cytotoxicity, CellTiter Glo. Format: cell-based. Conditions: Homo sapiens, Hepatocyte, 48 h, 2 days of treatment, read-out: IC50 (50% reduction in cell viability). The procedure:
as §1, §2

A further data set has as its system HEPG2. Description: Mitochondrial membrane potential (DiOC(6)3) and PI fluorocytometry. The data set is classed as cell-based, human. Conditions: 72 h, 20, 50 or 100 nM. The procedure:
(§3) HEPG2 and HUH7 cells were seeded at 1.5 × 10^5 cells/well and 1 × 10^5 cells/well, respectively, 24 h prior to treatment. After 72 h of treatment (0, 20, 50 or 100 nM of NV651), supernatant and trypsinized cells were collected and stained with propidium iodide (PI) (Thermo Fisher Scientific, Waltham, MA, USA) at a concentration of 1 μg/mL to evaluate the plasma membrane integrity; due to the lack of cell permeability, only dead cells are able to incorporate it. In addition, changes in the mitochondrial membrane potential were evaluated by 3,3′-dihexyloxacarbocyanine iodide (DiOC(6)3)(Molecular Probes–Invitrogen, Waltham, MA, USA) staining at a concentration of 40 nM.
(§4) Data was acquired with FACSverse Instrument and analyzed with FCS Express 6 Flow Research.

The subject of data set [4] is HUH7. The description is as above. The data set is classed as cell-based, human. Conditions: 72 h, 20, 50 or 100 nM. The procedure:
as §3, §4

Details of data set [5]: method as in PMID 31717385. The note with it: cited from earlier work.

Turning to `CC(=O)CCC1C(=O)NC(C(C)C)C(=O)NC(Cc2cc(O)cc(F)c2)C(=O)N2CCCC(N2)C(=O)OC(C(C)=CC=CC(=O)OC(C)(C)C)CC=CC=CC(O)C(C)C1O` (stereo not shown) [NV651], the bioavailability in data set [1] (0.5 mg/kg IV vs 5 mg/kg PO) was found to be 2%. Besides, the Tmax is around 5 min in data set [1] (0.5 mg/kg IV) and around 60 min in data set [1] (5 mg/kg PO). The “stability of NV651 solution” value in data set [2] is recorded as “up to 3 weeks”. For the same molecule, the “number of mitotic counts” value in the data set with HUH7 [3] is “increase in the number of mitotic counts”. For the same molecule, the IC50 with iPS neurons and in the data set with Hepatocytes was above 30 µM each time. Also, the “changes in mitochondrial membrane potential (DiOC6(3)) and plasma membrane integrity (PI)” value with HEPG2 and in the data set with HUH7 [4] was “did not show any significant differences” throughout. Besides, in data set [5], the immunosuppressant activity result is given as “no immunosuppressant activity”.

The bioavailability is dose-corrected exposure relative to a reference, in per cent. A high value points to good availability. As a reminder, the IC50 is the concentration at which inhibition is half-maximal.
